Reference: patent US9050341B2, “Methods of treating drug resistant and other tumors by administering 6,7-dialkoxy quinazoline derivatives” (NATCO PHARMA LIMITED, priority 2009, dated 2015)

How the values were obtained:
Test in all cases: KinomeScan kinase profiling
Assay type in all cases: binding
MLCK = molecular target: T1, MLCK (Homo sapiens, UniProt Q32MK0)
T1 construct: host or cells: T7 phage in E. coli host derived from BL21
Outline: (§1)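 Kinases were expressed as T7 phage fusions in a BL21-derived E. coli host and the cleared lysates were used. Ligand beads were blocked with biotin and buffer (1% BSA, 0.05% Tween 20, 1 mM DTT). Compounds came from 40× DMSO stocks, and phage in the eluates was titred by qPCR.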

RIOK3 = molecular target: T2, RIOK3 (Homo sapiens, UniProt O14730)
T2 construct: host or cells: E. coli host derived from BL21, T7 phage lysate
Outline: as §1

RIOK2 = molecular target: T3, RIOK2 (Homo sapiens, UniProt Q9BVS4)
T3 construct: host or cells: E. coli host derived from BL21, T7 phage lysate
Outline: as §1

CSNK2A2 = molecular target: T4, CSNK2A2 (Homo sapiens, UniProt P19784)
T4 construct: purchased Ambit Biosciences Corp (KinomeScan); host or cells: T7 phage in E. coli host derived from BL21
T4 sequence (P19784 whole entry): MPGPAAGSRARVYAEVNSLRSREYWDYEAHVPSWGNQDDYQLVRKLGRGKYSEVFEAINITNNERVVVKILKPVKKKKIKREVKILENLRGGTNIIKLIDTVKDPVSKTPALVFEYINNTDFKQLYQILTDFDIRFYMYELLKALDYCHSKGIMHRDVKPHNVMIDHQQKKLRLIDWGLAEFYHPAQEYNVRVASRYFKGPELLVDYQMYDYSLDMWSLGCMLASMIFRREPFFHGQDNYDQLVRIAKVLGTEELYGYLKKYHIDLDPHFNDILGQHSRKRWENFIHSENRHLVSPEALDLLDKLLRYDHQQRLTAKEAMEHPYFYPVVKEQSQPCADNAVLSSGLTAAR
Outline: as §1

NEK9 = molecular target: T5, NEK9 (Homo sapiens, UniProt Q8TD19)
T5 construct: host or cells: T7 phage in E. coli host derived from BL21
T5 sequence (Q8TD19 whole entry): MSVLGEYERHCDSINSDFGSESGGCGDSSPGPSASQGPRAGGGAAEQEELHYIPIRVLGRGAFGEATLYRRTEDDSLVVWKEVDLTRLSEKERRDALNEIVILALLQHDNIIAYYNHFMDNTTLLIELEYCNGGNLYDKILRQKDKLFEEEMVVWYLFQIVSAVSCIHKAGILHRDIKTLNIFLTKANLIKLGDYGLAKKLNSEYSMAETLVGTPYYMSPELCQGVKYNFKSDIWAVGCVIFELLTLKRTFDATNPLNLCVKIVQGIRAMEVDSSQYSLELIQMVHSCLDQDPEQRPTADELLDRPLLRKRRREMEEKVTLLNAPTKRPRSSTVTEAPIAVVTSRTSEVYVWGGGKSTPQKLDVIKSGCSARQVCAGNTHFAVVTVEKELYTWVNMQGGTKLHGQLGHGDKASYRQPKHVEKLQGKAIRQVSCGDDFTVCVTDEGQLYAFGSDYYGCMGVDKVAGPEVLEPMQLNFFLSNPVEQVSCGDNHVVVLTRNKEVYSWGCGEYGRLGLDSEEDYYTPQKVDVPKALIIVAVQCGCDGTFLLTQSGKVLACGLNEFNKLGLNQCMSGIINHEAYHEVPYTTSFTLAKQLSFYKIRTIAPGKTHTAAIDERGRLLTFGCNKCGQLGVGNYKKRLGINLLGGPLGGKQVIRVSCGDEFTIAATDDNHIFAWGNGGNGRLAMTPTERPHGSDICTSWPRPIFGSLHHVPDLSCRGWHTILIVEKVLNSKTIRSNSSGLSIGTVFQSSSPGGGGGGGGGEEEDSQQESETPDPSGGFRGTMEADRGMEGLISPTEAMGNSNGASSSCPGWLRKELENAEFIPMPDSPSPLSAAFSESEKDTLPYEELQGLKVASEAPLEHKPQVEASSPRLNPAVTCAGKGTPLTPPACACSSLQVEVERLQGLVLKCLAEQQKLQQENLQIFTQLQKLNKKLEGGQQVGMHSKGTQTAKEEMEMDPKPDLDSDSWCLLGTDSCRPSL
Outline: as §1

CLK4 = molecular target: T6, CLK4 (Homo sapiens, UniProt Q9HAZ1)
T6 construct: host or cells: T7 phage in E. coli (BL21-derived)
T6 sequence (Q9HAZ1 whole entry): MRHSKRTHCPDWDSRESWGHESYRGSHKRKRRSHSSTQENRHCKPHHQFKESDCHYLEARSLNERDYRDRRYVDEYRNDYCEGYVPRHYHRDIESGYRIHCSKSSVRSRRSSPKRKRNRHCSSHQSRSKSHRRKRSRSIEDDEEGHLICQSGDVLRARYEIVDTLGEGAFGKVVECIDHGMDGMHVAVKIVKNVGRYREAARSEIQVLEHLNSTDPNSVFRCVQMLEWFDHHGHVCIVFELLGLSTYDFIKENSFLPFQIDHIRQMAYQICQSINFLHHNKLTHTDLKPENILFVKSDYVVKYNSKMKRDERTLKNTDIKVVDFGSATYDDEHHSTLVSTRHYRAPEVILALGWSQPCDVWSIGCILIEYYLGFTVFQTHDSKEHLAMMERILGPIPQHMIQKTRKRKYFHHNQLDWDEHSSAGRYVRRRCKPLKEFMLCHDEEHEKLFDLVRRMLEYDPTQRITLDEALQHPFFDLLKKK
Outline: as §1

CSK = molecular target: T7, CSK (Homo sapiens, UniProt P41240)
T7 construct: host or cells: T7 phage in E. coli (BL21-derived)
Outline: as §1

DRAK1 = molecular target: T8, DRAK1 (Homo sapiens, UniProt Q9UEE5)
T8 construct: purchased Ambit Biosciences Corp (KinomeScan); host or cells: T7 phage in E. coli host derived from BL21
Outline: as §1

EPHA8 = molecular target: T9, EPHA8 (Homo sapiens, UniProt P29322)
T9 construct: host or cells: E. coli host derived from BL21, T7 phage lysate
Outline: as §1

NEK7 = molecular target: T10, NEK7 (Homo sapiens, UniProt Q8TDX7)
T10 construct: host or cells: T7 phage in E. coli host derived from BL21
T10 sequence (Q8TDX7 whole entry): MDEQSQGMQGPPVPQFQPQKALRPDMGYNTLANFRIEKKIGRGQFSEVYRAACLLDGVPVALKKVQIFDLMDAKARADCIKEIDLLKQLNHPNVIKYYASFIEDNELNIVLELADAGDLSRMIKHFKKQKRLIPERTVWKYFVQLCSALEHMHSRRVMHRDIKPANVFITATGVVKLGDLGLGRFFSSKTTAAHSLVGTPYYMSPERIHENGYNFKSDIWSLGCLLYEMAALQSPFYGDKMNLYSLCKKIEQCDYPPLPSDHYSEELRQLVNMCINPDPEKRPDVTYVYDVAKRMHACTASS
Outline: as §1

MET = molecular target: T11, MET (Homo sapiens, UniProt P08581)
T11 construct: host or cells: E. coli derived from BL21, infected with T7 phage
Outline: as §1

ABL1 (H396P) = molecular target: T12, ABL1 (H396P) (Homo sapiens, UniProt P00519, H396P)
T12 construct: host or cells: E. coli host derived from BL21 (T7 phage lysate)
Outline: as §1

GSK3B = molecular target: T13, GSK3B (Homo sapiens, UniProt P49841)
T13 construct: host or cells: E. coli host derived from BL21, infected with T7 phage
Outline: as §1

[1] = molecular target: T14, JAK1 (JH2domain-pseudokinase) (Homo sapiens, UniProt P23458)
T14 construct: JAK1 (JH2domain-pseudokinase); host or cells: T7 phage in E. coli host derived from BL21
T14 sequence (P23458 583-855 limits assumed): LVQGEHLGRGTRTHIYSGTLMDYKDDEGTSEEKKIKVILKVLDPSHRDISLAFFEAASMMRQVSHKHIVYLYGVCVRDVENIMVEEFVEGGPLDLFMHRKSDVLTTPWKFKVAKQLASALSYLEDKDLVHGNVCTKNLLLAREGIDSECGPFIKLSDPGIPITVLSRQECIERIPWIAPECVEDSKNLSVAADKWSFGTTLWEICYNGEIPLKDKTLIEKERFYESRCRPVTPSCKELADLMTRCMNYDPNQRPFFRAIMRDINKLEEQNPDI
Outline: as §1

MRCKA = molecular target: T15, MRCKA (Homo sapiens, UniProt Q5VT25)
T15 construct: host or cells: T7 phage in E. coli host derived from BL21
Outline: as §1

FGFR3 (G697C) = molecular target: T16, FGFR3 (G697C) (Homo sapiens, UniProt P22607, G697C)
T16 construct: host or cells: E. coli host derived from BL21, infected with T7 phage
Outline: as §1

CAMK2D = molecular target: T17, CAMK2D (Homo sapiens, UniProt Q13557)
T17 construct: purchased Ambit Biosciences Corp (KinomeScan); host or cells: E. coli host derived from the BL21 strain, T7 phage
Outline: as §1

TNK1 = molecular target: T18, TNK1 (Homo sapiens, UniProt Q13470)
T18 construct: purchased Ambit Biosciences Corp (KinomeScan); host or cells: E. coli host derived from the BL21 strain (T7 phage lysate)
Outline: as §1

MST1R = molecular target: T19, MST1R (Homo sapiens, UniProt Q04912)
T19 construct: host or cells: T7 phage in E. coli host derived from BL21
Outline: as §1

TTK = molecular target: T20, TTK (Homo sapiens, UniProt P33981)
T20 construct: purchased Ambit Biosciences Corp (KinomeScan); host or cells: E. coli host derived from the BL21 strain (T7 phage lysate)
Outline: as §1

p38-gamma = molecular target: T21, p38-gamma (Homo sapiens, UniProt P53778)
T21 construct: host or cells: E. coli host derived from the BL21 strain, infected with T7 phage
Outline: as §1

LATS1 = molecular target: T22, LATS1 (Homo sapiens, UniProt O95835)
T22 construct: host or cells: T7 phage in E. coli host derived from BL21
T22 sequence (O95835 whole entry): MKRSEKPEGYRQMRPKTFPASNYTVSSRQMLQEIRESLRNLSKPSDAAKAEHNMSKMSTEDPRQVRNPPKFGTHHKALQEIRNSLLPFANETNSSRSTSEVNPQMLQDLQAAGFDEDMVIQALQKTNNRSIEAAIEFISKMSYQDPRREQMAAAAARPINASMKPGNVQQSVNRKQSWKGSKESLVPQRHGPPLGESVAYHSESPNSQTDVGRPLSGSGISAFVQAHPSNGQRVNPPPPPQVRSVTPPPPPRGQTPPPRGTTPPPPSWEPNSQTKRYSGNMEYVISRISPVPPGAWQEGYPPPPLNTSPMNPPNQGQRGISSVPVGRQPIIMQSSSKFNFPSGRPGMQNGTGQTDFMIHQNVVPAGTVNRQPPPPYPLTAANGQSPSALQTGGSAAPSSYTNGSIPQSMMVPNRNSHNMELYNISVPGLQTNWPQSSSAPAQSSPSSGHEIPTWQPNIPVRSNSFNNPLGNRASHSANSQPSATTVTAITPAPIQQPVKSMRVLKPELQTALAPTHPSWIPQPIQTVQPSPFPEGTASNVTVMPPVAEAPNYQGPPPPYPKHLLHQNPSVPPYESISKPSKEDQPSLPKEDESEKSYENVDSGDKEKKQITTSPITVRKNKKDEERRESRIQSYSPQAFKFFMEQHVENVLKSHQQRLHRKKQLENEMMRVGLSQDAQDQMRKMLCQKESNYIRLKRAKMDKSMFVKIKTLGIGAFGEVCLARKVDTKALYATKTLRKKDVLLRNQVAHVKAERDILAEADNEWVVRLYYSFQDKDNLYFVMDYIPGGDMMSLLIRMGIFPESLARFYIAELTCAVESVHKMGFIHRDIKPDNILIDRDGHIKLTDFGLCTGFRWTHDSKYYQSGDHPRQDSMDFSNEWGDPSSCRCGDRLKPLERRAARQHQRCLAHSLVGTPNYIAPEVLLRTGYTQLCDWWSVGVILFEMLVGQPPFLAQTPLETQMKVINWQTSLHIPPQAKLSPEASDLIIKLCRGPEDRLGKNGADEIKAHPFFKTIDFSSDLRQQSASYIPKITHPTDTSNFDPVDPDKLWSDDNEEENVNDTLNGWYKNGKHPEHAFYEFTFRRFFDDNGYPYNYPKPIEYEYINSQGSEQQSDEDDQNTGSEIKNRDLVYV
Outline: as §1

SLK = molecular target: T23, SLK (Homo sapiens, UniProt Q9H2G2)
T23 construct: host or cells: E. coli host derived from the BL21 strain, T7 phage lysate
T23 sequence (Q9H2G2 whole entry): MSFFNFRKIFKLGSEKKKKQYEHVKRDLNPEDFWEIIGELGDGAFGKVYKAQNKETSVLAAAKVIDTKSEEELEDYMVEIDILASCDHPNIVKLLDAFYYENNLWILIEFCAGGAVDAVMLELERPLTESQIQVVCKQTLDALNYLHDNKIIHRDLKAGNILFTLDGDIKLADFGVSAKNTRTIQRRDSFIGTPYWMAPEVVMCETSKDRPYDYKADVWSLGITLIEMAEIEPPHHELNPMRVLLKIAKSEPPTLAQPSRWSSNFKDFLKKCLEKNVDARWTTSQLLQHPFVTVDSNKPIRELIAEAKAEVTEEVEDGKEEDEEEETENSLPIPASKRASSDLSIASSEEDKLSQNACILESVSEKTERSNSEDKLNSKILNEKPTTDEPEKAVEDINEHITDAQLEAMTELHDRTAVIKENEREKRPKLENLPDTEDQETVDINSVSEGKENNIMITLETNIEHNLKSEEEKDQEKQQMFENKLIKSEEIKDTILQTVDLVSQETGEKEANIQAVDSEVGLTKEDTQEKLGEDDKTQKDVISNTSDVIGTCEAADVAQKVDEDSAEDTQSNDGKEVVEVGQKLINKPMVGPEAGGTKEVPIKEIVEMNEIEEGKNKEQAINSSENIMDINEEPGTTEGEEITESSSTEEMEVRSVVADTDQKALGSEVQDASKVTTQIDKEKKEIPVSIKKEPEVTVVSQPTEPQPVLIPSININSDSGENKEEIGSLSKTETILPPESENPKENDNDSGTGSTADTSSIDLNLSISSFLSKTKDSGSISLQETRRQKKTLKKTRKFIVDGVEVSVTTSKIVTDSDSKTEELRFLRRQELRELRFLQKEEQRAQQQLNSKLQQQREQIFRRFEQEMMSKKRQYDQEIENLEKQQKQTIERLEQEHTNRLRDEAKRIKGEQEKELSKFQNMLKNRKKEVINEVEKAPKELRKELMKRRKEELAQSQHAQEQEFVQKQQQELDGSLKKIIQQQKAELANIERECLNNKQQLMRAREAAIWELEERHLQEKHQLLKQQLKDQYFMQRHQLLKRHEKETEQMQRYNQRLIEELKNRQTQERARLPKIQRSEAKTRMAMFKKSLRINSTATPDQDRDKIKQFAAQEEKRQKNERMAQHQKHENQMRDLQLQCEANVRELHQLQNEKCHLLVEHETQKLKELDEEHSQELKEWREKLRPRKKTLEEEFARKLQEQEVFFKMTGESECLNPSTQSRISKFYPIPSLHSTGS
Outline: as §1

SMILES: C#Cc1cccc(Nc2ncnc3cc(OC)c(OCCCN4CCOCC4)cc23)c1 [NRC-2694, N-(3-ethylnylphenyl)-7-methoxy-6-[3-(4-morpholinyl)propoxy]-4-quinazolinamine]
- % Ctrl @ 10000 nM (MLCK): 77 % Ctrl
- % Ctrl @ 10000 nM (RIOK3): 37 % Ctrl
- % Ctrl @ 10000 nM (RIOK2): 43 % Ctrl
- % Ctrl @ 10000 nM (CSNK2A2): 52 % Ctrl
- % Ctrl @ 10000 nM (NEK9): 85 % Ctrl
- % Ctrl @ 10000 nM (CLK4): 17 % Ctrl
- % Ctrl @ 10000 nM (CSK): 53 % Ctrl
- % Ctrl @ 10000 nM (DRAK1): 51 % Ctrl
- % Ctrl @ 10000 nM (EPHA8): 66 % Ctrl
- % Ctrl @ 10000 nM (NEK7): 78 % Ctrl
- % Ctrl @ 10000 nM (MET): 33 % Ctrl
- % Ctrl @ 10000 nM (ABL1 (H396P)): 34 % Ctrl
- % Ctrl @ 10000 nM (GSK3B): 100 % Ctrl
- % Ctrl @ 10000 nM [1]: 81 % Ctrl
- % Ctrl @ 10000 nM (MRCKA): 81 % Ctrl
- % Ctrl @ 10000 nM (FGFR3 (G697C)): 82 % Ctrl
- % Ctrl @ 10000 nM (CAMK2D): 35 % Ctrl
- % Ctrl @ 10000 nM (TNK1): 41 % Ctrl
- % Ctrl @ 10000 nM (MST1R): 94 % Ctrl
- % Ctrl @ 10000 nM (TTK): 48 % Ctrl
- % Ctrl @ 10000 nM (p38-gamma): 97 % Ctrl
- % Ctrl @ 10000 nM (LATS1): 91 % Ctrl
- % Ctrl @ 10000 nM (SLK): 0.3 % Ctrl
